In the NIST ThermoML archive (doi:10.1016/j.jct.2016.03.026):

Experiment: xn = mol fraction of the nth substance listed
Details: 273.15 K, Fluid (supercritical or subcritical phases), x1 = 0.97; for mass density: Vibrating tube method

O=C=O [carbon dioxide] + CO
Details | mass density [kg/m3]
8000 kPa | 962.72
8025 kPa | 962.8
8050 kPa | 962.97
8075 kPa | 963.13
8100 kPa | 963.21
8125 kPa | 963.38
8150 kPa | 963.54
8175 kPa | 963.7
8200 kPa | 963.78
8225 kPa | 963.95
8250 kPa | 964.11
8275 kPa | 964.23
8300 kPa | 964.35
8325 kPa | 964.52
8350 kPa | 964.68
8375 kPa | 964.76
8400 kPa | 964.93
8425 kPa | 965.04
8450 kPa | 965.19
8475 kPa | 965.34
8500 kPa | 965.5
8525 kPa | 965.6
8550 kPa | 965.74
8575 kPa | 965.91
8600 kPa | 966
8625 kPa | 966.15
8650 kPa | 966.32
8675 kPa | 966.46
8700 kPa | 966.56
8725 kPa | 966.72
8750 kPa | 966.89
8775 kPa | 966.97
8800 kPa | 967.13
8825 kPa | 967.3
8850 kPa | 967.38
8875 kPa | 967.54
8900 kPa | 967.71
8925 kPa | 967.86
8950 kPa | 967.95
8975 kPa | 968.12
9000 kPa | 968.28
9025 kPa | 968.36
9050 kPa | 968.52
9075 kPa | 968.69
9100 kPa | 968.77
9125 kPa | 968.93
9150 kPa | 969.1
9175 kPa | 969.18
9200 kPa | 969.34
9225 kPa | 969.51
9250 kPa | 969.64
9275 kPa | 969.75
9300 kPa | 969.92
9325 kPa | 970
9350 kPa | 970.16
9375 kPa | 970.32
9400 kPa | 970.45
9425 kPa | 970.57
9450 kPa | 970.67
9475 kPa | 970.81
9500 kPa | 970.97
9525 kPa | 971.14
9550 kPa | 971.22
9575 kPa | 971.39
9600 kPa | 971.55
9625 kPa | 971.63
9650 kPa | 971.74
9675 kPa | 971.88
9700 kPa | 972.04
9725 kPa | 972.2
9750 kPa | 972.29
9775 kPa | 972.43
9800 kPa | 972.53
9825 kPa | 972.69
9850 kPa | 972.82
9875 kPa | 972.94
9900 kPa | 973.1
9925 kPa | 973.18
9950 kPa | 973.35
9975 kPa | 973.43
10000 kPa | 973.59
10025 kPa | 973.69
10050 kPa | 973.84
10075 kPa | 973.99
10100 kPa | 974.08
10125 kPa | 974.24
10150 kPa | 974.34
10175 kPa | 974.49
10200 kPa | 974.57
10225 kPa | 974.73
10250 kPa | 974.82
10275 kPa | 974.98
10300 kPa | 975.11
10325 kPa | 975.22
10350 kPa | 975.36
10375 kPa | 975.47
10400 kPa | 975.63
10425 kPa | 975.71
10450 kPa | 975.88
10475 kPa | 975.96
10500 kPa | 976.12
10525 kPa | 976.2
10550 kPa | 976.37
10575 kPa | 976.45
10600 kPa | 976.61
10625 kPa | 976.69
10650 kPa | 976.86
10675 kPa | 976.94
10700 kPa | 977.1
10725 kPa | 977.18
10750 kPa | 977.35
10775 kPa | 977.48
10800 kPa | 977.59
10825 kPa | 977.76
10850 kPa | 977.84
10875 kPa | 978
10900 kPa | 978.08
10925 kPa | 978.2
10950 kPa | 978.33
10975 kPa | 978.49
11000 kPa | 978.57
11025 kPa | 978.7
11050 kPa | 978.82
11075 kPa | 978.97
11100 kPa | 979.06
11125 kPa | 979.16
11150 kPa | 979.3
11175 kPa | 979.46
11200 kPa | 979.55
11225 kPa | 979.71
11250 kPa | 979.8
11275 kPa | 979.94
11300 kPa | 980.04
11325 kPa | 980.16
11350 kPa | 980.29
11375 kPa | 980.39
11400 kPa | 980.53
11425 kPa | 980.69
11450 kPa | 980.78
11475 kPa | 980.89
11500 kPa | 981.02
11525 kPa | 981.13
11550 kPa | 981.26
11575 kPa | 981.37
11600 kPa | 981.51
11625 kPa | 981.62
11650 kPa | 981.75
11675 kPa | 981.86
11700 kPa | 982
11725 kPa | 982.08
11750 kPa | 982.24
11775 kPa | 982.36
11800 kPa | 982.49
11825 kPa | 982.57
11850 kPa | 982.74
11875 kPa | 982.81
11900 kPa | 982.98
11925 kPa | 983.06
11950 kPa | 983.22
11975 kPa | 983.3
12000 kPa | 983.47
12025 kPa | 983.55
12050 kPa | 983.69
12075 kPa | 983.79
12100 kPa | 983.94
12125 kPa | 984.04
12150 kPa | 984.12
12175 kPa | 984.29
12200 kPa | 984.37
12225 kPa | 984.53
12250 kPa | 984.61
12275 kPa | 984.74
12300 kPa | 984.86
12325 kPa | 984.94
12350 kPa | 985.1
12375 kPa | 985.18
12400 kPa | 985.35
12425 kPa | 985.43
12450 kPa | 985.59
12475 kPa | 985.67
12500 kPa | 985.78
12525 kPa | 985.92
12550 kPa | 986
12575 kPa | 986.16
12600 kPa | 986.24
12625 kPa | 986.39
12650 kPa | 986.49
12675 kPa | 986.57
12700 kPa | 986.65
12725 kPa | 986.81
12750 kPa | 986.89
12775 kPa | 987.06
12800 kPa | 987.14
12825 kPa | 987.27
12850 kPa | 987.38
12875 kPa | 987.47
12900 kPa | 987.63
12925 kPa | 987.71
12950 kPa | 987.8
12975 kPa | 987.96
13000 kPa | 988.04
13025 kPa | 988.15
13050 kPa | 988.28
13075 kPa | 988.39
13100 kPa | 988.53
13125 kPa | 988.61
13150 kPa | 988.76
13175 kPa | 988.85
13200 kPa | 988.93
13225 kPa | 989.1
13250 kPa | 989.18
13275 kPa | 989.28
13300 kPa | 989.42
13325 kPa | 989.5
13350 kPa | 989.67
13375 kPa | 989.75
13400 kPa | 989.83
13425 kPa | 989.98
13450 kPa | 990.07
13475 kPa | 990.16
13500 kPa | 990.32
13525 kPa | 990.4
13550 kPa | 990.48
13575 kPa | 990.65
13600 kPa | 990.73
13625 kPa | 990.86
13650 kPa | 990.97
13675 kPa | 991.05
13700 kPa | 991.22
13725 kPa | 991.3
13750 kPa | 991.4
13775 kPa | 991.51
13800 kPa | 991.62
13825 kPa | 991.75
13850 kPa | 991.87
13875 kPa | 991.95
13900 kPa | 992.09
13925 kPa | 992.19
13950 kPa | 992.27
13975 kPa | 992.38
14000 kPa | 992.52
14025 kPa | 992.6

Details | speed of sound [m/s]
10000 kPa, Frequency=5 MHz, Pulse-echo method | 634.7
